Results taken from publication PMC6163080 (Journal of chromatography. B, Analytical technologies in …, 2018).

Legend:
[1] = tested on: human MetAPs; conditions: in vitro; ref [2]; cited from earlier work
[2] = tested on: MtMetAP1a; conditions: high-throughput screening; ref [2], [17]; cited from earlier work
[3] = Stability of CLBQ14 in rat urine samples; type: in vitro ADME, Sprague Dawley rat
[4] = tested on: MtMetAP1c; conditions: high-throughput screening; ref [2], [17]; cited from earlier work
[5] = tested on: replicating Mtb; conditions: in vitro; ref [2]; cited from earlier work
[6] = tested on: aged non-growing Mtb; conditions: in vitro; ref [2]; cited from earlier work
[7] = Stability of CLBQ14 in rat plasma samples; type: in vitro ADME, Sprague Dawley rat
[8] = Pharmacokinetic study, single IV bolus in adult male Sprague Dawley rats; type: in vivo; conditions: for AUC(0-inf) / C0 / clearance / half-life / Vd: male, Sprague Dawley, rat, plasma, iv
[9] = Sprague Dawley, rat, Freeze-thaw cycle stability, mean recovery ± SD
[10] = Sprague Dawley, rat, Processed sample or auto-sampler stability, mean recovery ± SD, No IS
[11] = Sprague Dawley, rat, Processed sample or auto-sampler stability, mean recovery ± SD, With IS
[12] = Sprague Dawley, rat, Short-term (bench-top) stability, mean recovery ± SD
[13] = 2 mg/kg single IV bolus, male SD rats, n = 4, mean ± SD
[14] = 5 mg/kg single IV bolus, male SD rats, n = 3, mean ± SD
[15] = 10 mg/kg single IV bolus, male SD rats, n = 4, mean ± SD

Oc1c(Br)cc(Cl)c2cccnc12 [CLBQ14, 7-bromo-5-chloroquinolin-8-ol]
Selectivity for both MtMetAPs over human MetAPs [1]: great selectivity | Inhibition of MtMetAP1a [2]: potent and selective inhibitor | Stability at room temperature [3]: stable for up to 6 hours | Inhibition of MtMetAP1c [4]: potent and selective inhibitor | Potency against replicating Mtb [5]: great potency | Potency against aged non-growing Mtb [6]: increased potency | recovery at 2.5 ng/mL [7, 9]: 104 ± 4.72% | recovery at 400 ng/mL [7, 9]: 95.9 ± 1.89% | recovery at 800 ng/mL [7, 9]: 96.8 ± 1.25% | recovery at 14 days ([7]; Sprague Dawley, rat, Long-term stability, mean recovery ± SD): ≤ 91.3% | recovery ([7]; Sprague Dawley, rat, Mean recovery after three freeze-thaw cycles): > 95.9% | recovery at 2 h [7, 10]: 97.8 ± 1.11% | recovery at 4 h [7, 10]: 97.1 ± 5.42% | recovery at 6 h [7, 10]: 95.5 ± 6.69% | recovery at 2 h [7, 11]: 95.9 ± 1.87% | recovery at 4 h [7, 11]: 94.7 ± 4.2% | recovery at 6 h [7, 11]: 97.3 ± 5.55% | recovery at 2 h [7, 12]: 91.6 ± 4.06% | recovery at 4 h [7, 12]: 95.1 ± 3.24% | recovery at 6 h [7, 12]: 93.7 ± 1.17% | Stability at room temperature ([7]; rat plasma samples, room temperature): stable for up to 6 hours | A (coefficient of distributional phase) [8, 13]: 1.39 ± 0.27 mg/L | B (coefficient of terminal phase) [8, 13]: 0.05 ± 0.00 mg/L | A (coefficient of distributional phase) [8, 14]: 3.14 ± 0.42 mg/L | B (coefficient of terminal phase) [8, 14]: 0.09 ± 0.04 mg/L | A (coefficient of distributional phase) [8, 15]: 5.09 ± 1.36 mg/L | B (coefficient of terminal phase) [8, 15]: 0.17 ± 0.07 mg/L | Administered dose excreted unchanged in urine ([8]; after 24 hr, IV bolus, male SD rats): 0.19 ± 0.04% | AUC(0-inf) ([8]; 2 mg/kg): 1360 ± 60 ng·h/mL | C0 ([8]; 2 mg/kg): 1440 ± 270 ng/mL | clearance ([8]; 2 mg/kg, Cl (total clearance), 2 mg/kg single IV bolus, male SD rats, n = 4, mean ± SD): 24.7 mL/min/kg | half-life ([8]; 2 mg/kg, T1/2α (half-life of distributional phase), 2 mg/kg single IV bolus, male SD rats, n = 4, mean ± SD): 0.16 ± 0.04 h | half-life ([8]; 2 mg/kg, T1/2β (elimination half-life of the beta elimination phase), 2 mg/kg single IV bolus, male SD rats, n = 4, mean ± SD): 14.8 ± 0.53 h | Vd ([8]; 2 mg/kg, Vss (volume of distribution at steady state), 2 mg/kg single IV bolus, male SD rats, n = 4, mean ± SD): 24.3 ± 1.28 L/kg | AUC(0-inf) ([8]; 5 mg/kg): 1960 ± 400 ng·h/mL | C0 ([8]; 5 mg/kg): 3240 ± 440 ng/mL | clearance ([8]; 5 mg/kg, Cl (total clearance), 5 mg/kg single IV bolus, male SD rats, n = 3, mean ± SD): 43.7 mL/min/kg | half-life ([8]; 5 mg/kg, T1/2α (half-life of distributional phase), 5 mg/kg single IV bolus, male SD rats, n = 3, mean ± SD): 0.17 ± 0.03 h | half-life ([8]; 5 mg/kg, T1/2β (elimination half-life of the beta elimination phase), 5 mg/kg single IV bolus, male SD rats, n = 3, mean ± SD): 10 ± 4.6 h | Vd ([8]; 5 mg/kg, Vss (volume of distribution at steady state), 5 mg/kg single IV bolus, male SD rats, n = 3, mean ± SD): 23.2 ± 11.5 L/kg | AUC(0-inf) ([8]; 10 mg/kg): 4830 ± 740 ng·h/mL | C0 ([8]; 10 mg/kg): 5270 ± 1430 ng/mL | clearance ([8]; 10 mg/kg, Cl (total clearance), 10 mg/kg single IV bolus, male SD rats, n = 4, mean ± SD): 35.2 mL/min/kg | clearance ([8]; 10 mg/kg, Estimated total plasma clearance, across the 3 groups (2, 5 and 10 mg/kg IV bolus), male SD rats): ≤ 43.7 mL/min/kg | Vd ([8]; 10 mg/kg, Steady state volume of distribution, across the 3 groups (2, 5 and 10 mg/kg IV bolus), male SD rats): ≤ 25.3 L/kg | half-life ([8]; 10 mg/kg, T1/2α (half-life of distributional phase), 10 mg/kg single IV bolus, male SD rats, n = 4, mean ± SD): 0.25 ± 0.09 h | half-life ([8]; 10 mg/kg, T1/2β (elimination half-life of the beta elimination phase), 10 mg/kg single IV bolus, male SD rats, n = 4, mean ± SD): 13.4 ± 3.59 h | Vd ([8]; 10 mg/kg, Vss (volume of distribution at steady state), 10 mg/kg single IV bolus, male SD rats, n = 4, mean ± SD): 27.3 ± 11.6 L/kg
